Measurements: patent publication US10800791B2, “Triazole ACC inhibitors and uses thereof” (Gilead Apollo, LLC, priority 2015, dated 2020)
Values after ≈ are worked out from the molar mass of the structure shown. Like-named read-outs stand apart in the source and are kept apart here.

How the values were obtained:
[1] = test system: Fusarium virguliforme (Fv); assay: Growth inhibition assay of fungal pathogens, Fv; type: cell-based; conditions: 48 h
Procedure, shortened: (§1)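 Read-out: OD600 plus visual rating at 24 and 48 h, blank (media + 2% DMSO) subtracted. Percent inhibition was derived at 48 h versus the 2% DMSO control. Spores were grown in 17% V8 broth with compound at 50/10/2 or 2/0.4/0.08 ppm final.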

C. krusei = assay: Antifungal Activity Assay (broth microtiter MIC), C. krusei; type: cell-based, Candida krusei; conditions: Pichia kudriavzevii, ATCC6258, 48 h
Procedure, shortened: (§2)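 MICs were scored by eye at 48 h relative to the growth control. Plates followed CLSI M27-A3, with Candida suspensions in RPMI 1640+MOPS giving a final 2.5×10^3 CFU/mL; the colonies came from Sabouraud agar grown overnight at 35 °C.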

human (hACC2) = human (hACC2) (Homo sapiens, UniProt O00763); assay: In vitro ACC inhibition assay (ADP-Glo), hACC2; type: biochemical; conditions: 5 nM ACC2, 20 μM ATP, 20 μM acetyl-CoA
Chain of human (hACC2) (O00763 whole entry): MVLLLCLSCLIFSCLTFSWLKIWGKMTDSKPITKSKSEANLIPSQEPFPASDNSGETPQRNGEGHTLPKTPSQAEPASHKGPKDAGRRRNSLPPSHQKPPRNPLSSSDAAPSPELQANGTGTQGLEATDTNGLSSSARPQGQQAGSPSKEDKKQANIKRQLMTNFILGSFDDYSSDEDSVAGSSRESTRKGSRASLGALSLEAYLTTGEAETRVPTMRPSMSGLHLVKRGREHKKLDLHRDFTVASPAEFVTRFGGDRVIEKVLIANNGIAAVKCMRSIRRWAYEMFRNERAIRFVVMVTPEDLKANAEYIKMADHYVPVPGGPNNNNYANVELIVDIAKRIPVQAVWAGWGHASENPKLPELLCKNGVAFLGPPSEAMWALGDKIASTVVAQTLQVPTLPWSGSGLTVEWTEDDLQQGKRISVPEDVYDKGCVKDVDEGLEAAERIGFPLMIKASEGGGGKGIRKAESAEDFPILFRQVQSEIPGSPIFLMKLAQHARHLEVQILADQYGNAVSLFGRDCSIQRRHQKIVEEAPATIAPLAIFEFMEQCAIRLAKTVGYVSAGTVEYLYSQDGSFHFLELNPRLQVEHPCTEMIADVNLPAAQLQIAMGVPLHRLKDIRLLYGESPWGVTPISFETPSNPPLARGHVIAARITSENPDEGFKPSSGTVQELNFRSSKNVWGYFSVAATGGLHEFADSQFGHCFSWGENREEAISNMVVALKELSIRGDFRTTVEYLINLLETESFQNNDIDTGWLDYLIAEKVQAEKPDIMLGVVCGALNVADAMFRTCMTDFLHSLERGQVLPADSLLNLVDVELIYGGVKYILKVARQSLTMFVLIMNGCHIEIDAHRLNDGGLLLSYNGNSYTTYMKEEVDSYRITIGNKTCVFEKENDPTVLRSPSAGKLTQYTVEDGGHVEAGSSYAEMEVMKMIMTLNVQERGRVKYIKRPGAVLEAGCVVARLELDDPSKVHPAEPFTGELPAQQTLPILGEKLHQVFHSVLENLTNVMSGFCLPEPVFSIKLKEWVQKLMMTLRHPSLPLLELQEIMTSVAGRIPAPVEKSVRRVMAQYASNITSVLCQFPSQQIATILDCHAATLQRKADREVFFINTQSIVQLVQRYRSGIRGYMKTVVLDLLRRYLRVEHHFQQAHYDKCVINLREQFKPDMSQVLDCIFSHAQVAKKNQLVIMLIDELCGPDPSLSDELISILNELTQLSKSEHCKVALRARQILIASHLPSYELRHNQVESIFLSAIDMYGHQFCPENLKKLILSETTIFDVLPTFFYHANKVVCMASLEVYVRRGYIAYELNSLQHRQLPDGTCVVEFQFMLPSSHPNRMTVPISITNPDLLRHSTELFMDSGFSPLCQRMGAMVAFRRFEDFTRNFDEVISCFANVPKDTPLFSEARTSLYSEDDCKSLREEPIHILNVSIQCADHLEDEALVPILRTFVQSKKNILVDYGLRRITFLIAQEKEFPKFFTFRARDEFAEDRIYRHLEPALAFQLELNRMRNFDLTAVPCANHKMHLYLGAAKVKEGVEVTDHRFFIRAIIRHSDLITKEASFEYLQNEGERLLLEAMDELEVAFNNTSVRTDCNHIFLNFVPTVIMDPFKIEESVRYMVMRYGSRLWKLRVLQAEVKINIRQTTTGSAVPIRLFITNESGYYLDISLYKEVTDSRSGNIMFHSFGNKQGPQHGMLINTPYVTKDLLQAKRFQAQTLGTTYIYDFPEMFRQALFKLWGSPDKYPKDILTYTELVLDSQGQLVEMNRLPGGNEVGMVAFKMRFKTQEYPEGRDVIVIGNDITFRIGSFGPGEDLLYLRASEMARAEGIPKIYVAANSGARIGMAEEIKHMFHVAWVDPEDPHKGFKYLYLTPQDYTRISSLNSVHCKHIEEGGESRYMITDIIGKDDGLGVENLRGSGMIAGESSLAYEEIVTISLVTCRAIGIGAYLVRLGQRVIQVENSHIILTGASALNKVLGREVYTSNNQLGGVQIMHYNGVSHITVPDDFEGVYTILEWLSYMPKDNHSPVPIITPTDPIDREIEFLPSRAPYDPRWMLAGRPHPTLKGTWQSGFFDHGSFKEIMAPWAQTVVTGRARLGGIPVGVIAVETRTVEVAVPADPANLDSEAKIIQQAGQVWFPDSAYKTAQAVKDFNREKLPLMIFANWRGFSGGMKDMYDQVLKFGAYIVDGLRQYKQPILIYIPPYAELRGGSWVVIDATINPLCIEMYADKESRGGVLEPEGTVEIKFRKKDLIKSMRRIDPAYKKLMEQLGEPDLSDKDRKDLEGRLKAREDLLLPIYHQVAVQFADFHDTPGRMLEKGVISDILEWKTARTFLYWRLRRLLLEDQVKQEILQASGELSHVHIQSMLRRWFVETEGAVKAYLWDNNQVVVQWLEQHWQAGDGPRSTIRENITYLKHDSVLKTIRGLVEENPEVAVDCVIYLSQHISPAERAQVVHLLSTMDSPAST
Experimental: The detailed procedure is as follows. […] 10 μL ADP glo reagent was added. […] 20 μL kinase detection reagent was added.

Septoria tritici (St) = assay: Growth inhibition assay of fungal pathogens, St; type: cell-based; conditions: Zymoseptoria tritici, 48 h
Procedure, shortened: as §1

[2] = test system: Phytophthora capsici (Pc); assay: Growth inhibition assay of fungal pathogens, Pc; type: cell-based; conditions: 48 h
Procedure, shortened: as §1

fungal (fACC2) = fungal (fACC2) (UniProt Q00955); conditions: read-out: fACC2 (in vitro ACC2 Inhibition Assay, IC50), ADP-Glo, 5 nM ACC2, 20 μM ATP, 20 μM acetyl-CoA
Chain of fungal (fACC2) (Q00955 whole entry): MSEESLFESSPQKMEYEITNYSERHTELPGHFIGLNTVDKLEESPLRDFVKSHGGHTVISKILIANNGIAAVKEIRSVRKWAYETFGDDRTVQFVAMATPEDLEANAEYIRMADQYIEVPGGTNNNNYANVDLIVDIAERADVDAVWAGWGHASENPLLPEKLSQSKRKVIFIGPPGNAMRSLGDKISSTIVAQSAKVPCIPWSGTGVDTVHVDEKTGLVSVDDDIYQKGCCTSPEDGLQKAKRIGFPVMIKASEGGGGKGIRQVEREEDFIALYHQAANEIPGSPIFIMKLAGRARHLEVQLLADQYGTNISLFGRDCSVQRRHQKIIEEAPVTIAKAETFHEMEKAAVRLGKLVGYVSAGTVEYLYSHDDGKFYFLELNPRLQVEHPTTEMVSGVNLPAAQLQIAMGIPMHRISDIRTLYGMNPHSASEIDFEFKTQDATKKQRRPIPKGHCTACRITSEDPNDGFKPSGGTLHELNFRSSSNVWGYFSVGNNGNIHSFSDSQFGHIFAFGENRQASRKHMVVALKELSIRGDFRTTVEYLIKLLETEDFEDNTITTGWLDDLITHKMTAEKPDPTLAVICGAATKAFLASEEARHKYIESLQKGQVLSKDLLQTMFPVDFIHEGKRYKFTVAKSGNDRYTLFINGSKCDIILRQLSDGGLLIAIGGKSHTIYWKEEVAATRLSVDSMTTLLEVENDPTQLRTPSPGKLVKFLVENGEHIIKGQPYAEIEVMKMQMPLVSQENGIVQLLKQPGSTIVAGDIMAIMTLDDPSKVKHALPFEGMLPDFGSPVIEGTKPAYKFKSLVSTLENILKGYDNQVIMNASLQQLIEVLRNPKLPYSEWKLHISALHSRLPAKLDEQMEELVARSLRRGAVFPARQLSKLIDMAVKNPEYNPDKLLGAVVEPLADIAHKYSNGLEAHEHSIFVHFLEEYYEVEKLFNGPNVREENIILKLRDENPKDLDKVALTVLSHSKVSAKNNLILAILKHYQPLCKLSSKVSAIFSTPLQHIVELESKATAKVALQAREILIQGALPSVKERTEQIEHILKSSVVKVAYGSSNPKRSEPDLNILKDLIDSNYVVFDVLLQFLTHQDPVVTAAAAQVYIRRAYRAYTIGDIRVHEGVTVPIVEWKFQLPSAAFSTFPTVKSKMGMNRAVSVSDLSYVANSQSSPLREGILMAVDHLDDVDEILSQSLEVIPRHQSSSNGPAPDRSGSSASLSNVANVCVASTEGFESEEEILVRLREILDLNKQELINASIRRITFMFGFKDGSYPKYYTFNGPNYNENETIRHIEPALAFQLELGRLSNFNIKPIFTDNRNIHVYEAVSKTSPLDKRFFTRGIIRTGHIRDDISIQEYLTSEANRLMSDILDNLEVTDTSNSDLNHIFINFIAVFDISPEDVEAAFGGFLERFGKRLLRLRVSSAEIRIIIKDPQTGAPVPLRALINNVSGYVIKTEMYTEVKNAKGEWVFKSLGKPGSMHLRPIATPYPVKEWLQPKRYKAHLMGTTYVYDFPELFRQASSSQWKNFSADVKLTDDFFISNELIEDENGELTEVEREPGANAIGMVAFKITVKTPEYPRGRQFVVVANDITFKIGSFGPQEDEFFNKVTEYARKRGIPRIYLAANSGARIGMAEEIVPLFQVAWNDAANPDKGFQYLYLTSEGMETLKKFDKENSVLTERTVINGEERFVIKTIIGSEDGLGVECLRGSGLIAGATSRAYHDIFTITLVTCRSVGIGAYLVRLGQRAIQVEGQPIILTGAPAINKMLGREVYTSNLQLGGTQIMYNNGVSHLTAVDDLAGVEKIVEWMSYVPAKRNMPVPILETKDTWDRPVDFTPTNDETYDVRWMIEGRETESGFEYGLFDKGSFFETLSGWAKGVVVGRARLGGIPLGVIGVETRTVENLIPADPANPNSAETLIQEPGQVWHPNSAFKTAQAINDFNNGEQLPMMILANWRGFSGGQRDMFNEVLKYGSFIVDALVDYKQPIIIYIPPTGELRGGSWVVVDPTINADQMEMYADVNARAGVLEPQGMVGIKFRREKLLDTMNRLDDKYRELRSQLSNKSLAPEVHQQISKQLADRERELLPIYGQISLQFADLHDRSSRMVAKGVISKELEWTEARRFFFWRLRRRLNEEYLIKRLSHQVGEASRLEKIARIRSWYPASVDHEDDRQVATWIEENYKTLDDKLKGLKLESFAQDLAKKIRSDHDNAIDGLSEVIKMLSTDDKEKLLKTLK

Rhizoctonia solani (Rs) = assay: Growth inhibition assay of fungal pathogens, Rs; type: cell-based; conditions: 48 h
C. parapsilosis = assay: Antifungal Activity Assay (broth microtiter MIC), C. parapsilosis; type: cell-based, Candida parapsilosis; conditions: Lodderomyces parapsilosis, ATCC22019, 48 h
Procedure, shortened: as §2

[3] = test system: Fusarium moniliforme (Fm); assay: Growth inhibition assay of fungal pathogens, Fm; type: cell-based; conditions: for IC90: Fusarium verticillioides, 48 h, read-out: Concentration at 90% Inhibition Fm
Procedure, shortened: as §1

Botrtyis cinerea (Bc) = assay: Growth inhibition assay of fungal pathogens, Bc; type: cell-based; conditions: 48 h
Procedure, shortened: as §1

[4] = growth inhibition at 48 hours vs 2% DMSO control, read-out: Concentration at 90% Inhibition Fv
[5] = growth inhibition vs 2% DMSO control at 48 hours, read-out: Concentration at 90% Inhibition Fv
[6] = Table 3a, ATCC 6258, 3 replicates, MIC recorded at 48 h, read-out: MIC, C. krusei ATCC 6258
[7] = Table 3b (additional results), ATCC 6258, 3 replicates, MIC recorded at 48 h, read-out: MIC, C. krusei ATCC 6258
[8] = Septoria tritici, growth inhibition at 48 hours vs 2% DMSO control, read-out: Concentration at 90% Inhibition St
[9] = Septoria tritici, growth inhibition vs 2% DMSO control at 48 hours, read-out: Concentration at 90% Inhibition St
[10] = growth inhibition at 48 hours vs 2% DMSO control, read-out: Concentration at 90% Inhibition Pc
[11] = growth inhibition vs 2% DMSO control at 48 hours, read-out: Concentration at 90% Inhibition Pc
[12] = mycelial plugs, growth inhibition at 48 hours vs 2% DMSO control, read-out: Concentration at 90% Inhibition Rs
[13] = mycelial plugs, growth inhibition vs 2% DMSO control at 48 hours, read-out: Concentration at 90% Inhibition Rs
[14] = Table 3a, ATCC 22019, 3 replicates, MIC recorded at 48 h, read-out: MIC, C. parapsilosis ATCC 22019
[15] = Table 3b (additional results), ATCC 22019, 3 replicates, MIC recorded at 48 h, read-out: MIC, C. parapsilosis ATCC 22019
[16] = Fusarium moniliforme, growth inhibition at 48 hours vs 2% DMSO control
[17] = Fusarium moniliforme, growth inhibition vs 2% DMSO control at 48 hours
[18] = Botrtyis cinerea, growth inhibition at 48 hours vs 2% DMSO control, read-out: Concentration at 90% Inhibition Bc
[19] = Botrtyis cinerea, growth inhibition vs 2% DMSO control at 48 hours, read-out: Concentration at 90% Inhibition Bc

Row | SMILES | IC90 [1, 4] [µg/mL] | IC90 [1, 5] [µg/mL] | MIC (C. krusei; [6]) [µg/mL] | MIC (C. krusei; [7]) [µg/mL] | IC50 (human (hACC2); Table 2a) [nM] | IC50 (human (hACC2); Table 2b, additional results) [nM] | IC90 (Septoria tritici (St); [8]) [µg/mL] | IC90 (Septoria tritici (St); [9]) [µg/mL] | IC90 [2, 10] [µg/mL] | IC90 [2, 11] [µg/mL] | IC50 (fungal (fACC2); Table 2a) [nM] | IC50 (fungal (fACC2); Table 2b, additional results) [nM] | IC90 (Rhizoctonia solani (Rs); [12]) [µg/mL] | IC90 (Rhizoctonia solani (Rs); [13]) [µg/mL] | MIC (C. parapsilosis; [14]) [µg/mL] | MIC (C. parapsilosis; [15]) [µg/mL] | IC90 [3, 16] [µg/mL] | IC90 [3, 17] [µg/mL] | IC90 (Botrtyis cinerea (Bc); [18]) [µg/mL] | IC90 (Botrtyis cinerea (Bc); [19]) [µg/mL] | further results
1 | COc1ccc(F)cc1[C@H](Cn1c(=O)n(CC(=O)N2CCCC2)c(=O)c2c(C)c(-n3nccn3)sc21)OCCO [Compound I-81, (R)-1-(2-(5-fluoro-2-methoxyphenyl)-2-(2-hydroxy-ethoxy)ethyl)-5-methyl-3-(2-oxo-2-(pyrrolidin-1-yl)ethyl)-6-(2H-1,2,3-triazol-2-yl)thieno[2,3-d]pyrimidine-2,4(1H,3H)-dione] | 0.4 (≈ 0.699 µM) | 0.4 (≈ 0.699 µM) | 2.1 to 4 (≈ 3.67 to 6.99 µM) | > 4.01 | 5 to 10 | 5 to 10 | > 50 | > 50 | > 50 | > 50 | 1 to 5 | 1 to 5 | 0.08 (≈ 0.14 µM) | 0.08 (≈ 0.14 µM) | 2.1 to 4 (≈ 3.67 to 6.99 µM) | 2.01 to 4 (≈ 3.51 to 6.99 µM) | 0.08 (≈ 0.14 µM) | 0.08 (≈ 0.14 µM) | 0.08 (≈ 0.14 µM) | 0.08 (≈ 0.14 µM) | 
2 | COc1ccc(F)cc1[C@H](Cn1c(=O)n(CC(=O)NC(C)C)c(=O)c2c(C)c(-n3nccn3)sc21)OCCO [Compound I-82, (R)-2-(1-(2-(5-fluoro-2-methoxyphenyl)-2-(2-hydroxy-ethoxy)ethyl)-5-methyl-2,4-dioxo-6-(2H-1,2,3-triazol-2-yl)-1,4-dihydro-thieno[2,3-d]pyrimidin-3(2H)-yl)-N-isopropylacetamide] |  |  |  |  | 1 to 5 | 1 to 5 |  |  |  |  | 1 to 5 | 1 to 5 |  |  |  |  |  |  |  |  | IC90 ([1]; read-out: Concentration at 90% Inhibition Fv, Fusarium virguliforme, growth inhibition at 48 hours vs 2% DMSO control): 2 µg/mL (≈ 3.57 µM); IC90 ([1]; read-out: Concentration at 90% Inhibition Fv, Fusarium virguliforme, growth inhibition vs 2% DMSO control at 48 hours): 2 µg/mL (≈ 3.57 µM); MIC (C. krusei; read-out: MIC, C. krusei ATCC 6258, Table 3a, 3 replicates, MIC recorded at 48 h): 2.1 to 4 µg/mL (≈ 3.75 to 7.14 µM); MIC (C. krusei; read-out: MIC, C. krusei ATCC 6258, Table 3b (additional results), 3 replicates, MIC recorded at 48 h): 2.01 to 4 µg/mL (≈ 3.59 to 7.14 µM); IC90 (Septoria tritici (St); read-out: Concentration at 90% Inhibition St, Septoria tritici, growth inhibition at 48 hours vs 2% DMSO control): > 50 µg/mL; IC90 (Septoria tritici (St); read-out: Concentration at 90% Inhibition St, Septoria tritici, growth inhibition vs 2% DMSO control at 48 hours): > 50 µg/mL; IC90 ([2]; read-out: Concentration at 90% Inhibition Pc, Phytophthora capsici, growth inhibition at 48 hours vs 2% DMSO control): > 50 µg/mL; IC90 ([2]; read-out: Concentration at 90% Inhibition Pc, Phytophthora capsici, growth inhibition vs 2% DMSO control at 48 hours): > 50 µg/mL; IC90 (Rhizoctonia solani (Rs); read-out: Concentration at 90% Inhibition Rs, Rhizoctonia solani, mycelial plugs, growth inhibition at 48 hours vs 2% DMSO control): 2 µg/mL (≈ 3.57 µM); IC90 (Rhizoctonia solani (Rs); read-out: Concentration at 90% Inhibition Rs, Rhizoctonia solani, mycelial plugs, growth inhibition vs 2% DMSO control at 48 hours): 2 µg/mL (≈ 3.57 µM); MIC (C. parapsilosis; read-out: MIC, C. parapsilosis ATCC 22019, Table 3a, 3 replicates, MIC recorded at 48 h): 2.1 to 4 µg/mL (≈ 3.75 to 7.14 µM); MIC (C. parapsilosis; read-out: MIC, C. parapsilosis ATCC 22019, Table 3b (additional results), 3 replicates, MIC recorded at 48 h): 2.01 to 4 µg/mL (≈ 3.59 to 7.14 µM); Concentration at 90% Inhibition Fm [3, 16]: AA (compound concentration of 0.08 ppm at 90% inhibition of fungal pathogens); IC90 [3]: 0.08 µg/mL (≈ 0.143 µM); IC90 (Botrtyis cinerea (Bc); read-out: Concentration at 90% Inhibition Bc, Botrtyis cinerea, growth inhibition at 48 hours vs 2% DMSO control): 2 µg/mL (≈ 3.57 µM); IC90 (Botrtyis cinerea (Bc); read-out: Concentration at 90% Inhibition Bc, Botrtyis cinerea, growth inhibition vs 2% DMSO control at 48 hours): 2 µg/mL (≈ 3.57 µM)
3 | COc1ccc(F)cc1[C@H](Cn1c(=O)n([C@H](C)C(=O)NC2CCC2)c(=O)c2c(C)c(-n3nccn3)sc21)OCCO [Compound I-84, (R)—N-cyclobutyl-2-(1-((R)-2-(5-fluoro-2-methoxyphenyl)-2-(2-hydroxyethoxy)ethyl)-5-methyl-2,4-dioxo-6-(2H-1,2,3-triazol-2-yl)-1,4-dihydrothieno[2,3-d]pyrimidin-3(2H)-yl)propanamide] | 0.4 (≈ 0.682 µM) | 0.4 (≈ 0.682 µM) | 0.25 to 1 (≈ 0.426 to 1.7 µM) | 0.25 to 1 (≈ 0.426 to 1.7 µM) | 5 to 10 | 5 to 10 | 2 (≈ 3.41 µM) | 10 (≈ 17 µM) | 2 (≈ 3.41 µM) | 2 (≈ 3.41 µM) | 0.4 to 1 | 0.3 to 1 | 0.08 (≈ 0.136 µM) | 0.08 (≈ 0.136 µM) | 0.25 to 1 (≈ 0.426 to 1.7 µM) | 0.25 to 1 (≈ 0.426 to 1.7 µM) | 0.08 (≈ 0.136 µM) | 0.08 (≈ 0.136 µM) | 0.4 (≈ 0.682 µM) | 0.4 (≈ 0.682 µM) | 
